# Assay results reported in US11008323B2, “Substituted tricyclic 1,4-benzodiazepinone derivatives as allosteric modulators of group II metabotropic glutamate receptors” (Domain Therapeutics, priority 2015, dated 2021).
# Tests used:
# human mGluR3 (hmGluR3) = target: T1, human mGluR3 (hmGluR3) (Homo sapiens, UniProt Q14832); assay: Human mGluR3 positive allosteric modulator evaluation using Ca++ functional assay; type: cell-based; conditions: hmGluR3 transiently over-expressed in HEK-293 cells; stimulated by EC50 glutamate concentration; intracellular Ca2+ (Fluo4AM, FLIPR Tetra)
# T1 construct: expressed in transfected cells; host or cells: HEK-293 cells, transient co-transfection by electroporation
# Summary of the method: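 Calcium flux (Fluo4, ex 485/em 525 nm) recorded first 10 min with compound alone, then 3 min after an EC50 glutamate challenge, giving agonist and PAM EC50 from 20-concentration sigmoidal fits. Receptor was transiently co-transfected in HEK-293 with chimeric G protein and glutamate transporters.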
# T1 sequence (Q14832 23-879): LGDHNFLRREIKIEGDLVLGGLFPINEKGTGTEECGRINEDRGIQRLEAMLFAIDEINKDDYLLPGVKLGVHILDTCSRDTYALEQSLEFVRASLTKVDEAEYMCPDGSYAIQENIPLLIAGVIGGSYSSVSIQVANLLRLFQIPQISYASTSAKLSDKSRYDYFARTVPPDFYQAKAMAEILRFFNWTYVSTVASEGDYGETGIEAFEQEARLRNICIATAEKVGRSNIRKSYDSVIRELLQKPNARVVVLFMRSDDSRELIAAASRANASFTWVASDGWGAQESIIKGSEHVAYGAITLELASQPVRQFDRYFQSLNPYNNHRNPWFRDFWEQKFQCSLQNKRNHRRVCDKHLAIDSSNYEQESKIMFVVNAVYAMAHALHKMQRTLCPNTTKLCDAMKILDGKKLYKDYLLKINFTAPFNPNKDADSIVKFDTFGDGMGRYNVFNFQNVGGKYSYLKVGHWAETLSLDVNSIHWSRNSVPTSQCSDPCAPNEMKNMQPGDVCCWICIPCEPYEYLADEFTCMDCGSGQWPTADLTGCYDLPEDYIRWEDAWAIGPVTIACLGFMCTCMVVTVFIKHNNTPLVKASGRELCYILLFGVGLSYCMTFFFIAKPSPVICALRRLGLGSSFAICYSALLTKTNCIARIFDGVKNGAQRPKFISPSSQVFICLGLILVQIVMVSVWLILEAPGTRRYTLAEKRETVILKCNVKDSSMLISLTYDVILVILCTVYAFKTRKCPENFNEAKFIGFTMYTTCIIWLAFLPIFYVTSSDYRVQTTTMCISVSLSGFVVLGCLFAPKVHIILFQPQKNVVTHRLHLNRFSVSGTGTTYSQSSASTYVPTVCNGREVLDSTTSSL
EC50 (human mGluR3 (hmGluR3)),melting point,Structure (SMILES)
> 1000 nM,143 to 150 °C,"Cc1ccc2c(c1)C1(CC1)N(C)C(=O)c1cccn1-2 [Example 87, 5,8-Dimethyl-spiro[benzo[f]pyrrolo[1,2-a][1,4]diazepine-6,1′-cyclopropan]-4(5H)-one]"
> 1000 nM,140 to 146 °C,"CN1C(=O)c2cccn2-c2ccc(N3CCOCC3)cc2C12CC2 [Example 88, 8-Morpholin-4-yl-5-methyl-spiro[benzo[f]pyrrolo[1,2-a][1,4]diazepine-6,1′-cyclopropan]-4(5H)-one]"
> 1000 nM,126 to 134 °C,"Cc1cccc2c1C1(CC1)N(C)C(=O)c1cccn1-2 [Example 89, 5,7-Dimethyl-spiro[benzo[f]pyrrolo[1,2-a][1,4]diazepine-6,1′-cyclopropan]-4(5H)-one]"
> 1000 nM,200 to 207 °C,"Cc1cccc2c1-n1cccc1C(=O)N(C)C21CC1 [Example 90, 5,10-Dimethyl-spiro[benzo[f]pyrrolo[1,2-a][1,4]diazepine-6,1′-cyclopropan]-4(5H)-one]"
> 1000 nM,250 °C,"CN1C(=O)c2cccn2-c2c(C#N)cccc2C12CC2 [Example 91, 10-Cyano-5-methyl-spiro[benzo[f]pyrrolo[1,2-a][1,4]diazepine-6,1′-cyclopropan]-4(5H)-one]"
< 100 nM,> 250 °C,"CN1C(=O)c2cc(-c3ccccc3)cn2-c2cc(-c3cccc(C(=O)O)c3)ccc2C12CC2 [Example 94, 3-(5-methyl-4-oxo-2-phenyl-4,5-dihydrospiro[benzo[f]pyrrolo[1,2-a][1,4]diazepine-6,1′-cyclopropan]-9-yl)benzoic acid]"
> 1000 nM,199 to 204 °C,"CN1C(=O)c2cc(-c3ccccc3)cn2-c2cc(-c3cccnc3C(F)(F)F)ccc2C12CC2 [Example 100, 5-Methyl-2-phenyl-9-(2-trifluoromethyl-pyridin-3-yl)-spiro[benzo[f]pyrrolo[1,2-a][1,4]diazepine-6,1′-cyclopropan]-4(5H)-one]"
< 100 nM,177 to 184 °C,"CN1C(=O)c2cc(-c3ccccc3)cn2-c2cc(-c3ccc(F)nc3)ccc2C12CC2 [Example 106, 5-Methyl-2-phenyl-9-(6-fluoro-pyridin-3-yl)-spiro[benzo[f]pyrrolo[1,2-a][1,4]diazepine-6,1′-cyclopropan]-4(5H)-one]"
100 to 1000 nM,130 to 141 °C,"CN1C(=O)c2cc(-c3ccccc3)cn2-c2cc(-c3cnccn3)ccc2C12CC2 [Example 108, 5-Methyl-2-phenyl-9-pyrazin-2-yl-spiro[benzo[f]pyrrolo[1,2-a][1,4]diazepine-6,1′-cyclopropan]-4(5H)-one]"
< 100 nM,140 to 151 °C,"CN1C(=O)c2cc(-c3ccccc3)cn2-c2cc(-c3ccc(F)cn3)ccc2C12CC2 [Example 110, 5-Methyl-2-phenyl-9-(5-fluoro-pyridin-2-yl)-spiro[benzo[f]pyrrolo[1,2-a][1,4]diazepine-6,1′-cyclopropan]-4(5H)-one]"
100 to 1000 nM,143 to 149 °C,"CN1C(=O)c2cc(-c3ccccc3)cn2-c2cc(-c3cccnc3F)ccc2C12CC2 [Example 113, 5-Methyl-2-phenyl-9-(2-fluoro-pyridin-3-yl)-spiro[benzo[f]pyrrolo[1,2-a][1,4]diazepine-6,1′-cyclopropan]-4(5H)-one]"
100 to 1000 nM,183 to 186 °C,"COc1ncccc1-c1ccc2c(c1)-n1cc(-c3ccccc3)cc1C(=O)N(C)C21CC1 [Example 116, 5-Methyl-2-phenyl-9-(2-methoxy-pyridin-3-yl)-spiro[benzo[f]pyrrolo[1,2-a][1,4]diazepine-6,1′-cyclopropan]-4(5H)-one]"
100 to 1000 nM,200 to 204 °C,"CN1C(=O)c2cc(-c3ccccc3)cn2-c2cc(-c3ccc(C#N)nc3)ccc2C12CC2 [Example 117, 5-Methyl-2-phenyl-9-(6-cyano-pyridin-3-yl)-spiro[benzo[f]pyrrolo[1,2-a][1,4]diazepine-6,1′-cyclopropan]-4(5H)-one]"
> 1000 nM,117 to 123 °C,"CN1C(=O)c2cc(-c3ccccc3)cn2-c2ccc(N3CCOCC3)cc2C12CC2 [Example 120, 8-Morpholin-4-yl-5-methyl-2-phenyl-spiro[benzo[f]pyrrolo[1,2-a][1,4]diazepine-6,1′-cyclopropan]-4(5H)-one]"
> 1000 nM,133 to 140 °C,"CN1C(=O)c2cc(-c3ccccc3)nn2-c2cc(-c3ccccc3)ccc2C12CC2 [Example 123, 2,9-Diphenyl-5-methyl-2-spiro[benzo[f]pyrazolo[1,5-a][1,4]diazepine-6,1′-cyclopropan]-4(5H)-one]"
> 1000 nM,195 to 209 °C,"CN1C(=O)c2cc(-c3ccccc3)nn2-c2cc(-c3ccc(N)cc3)ccc2C12CC2 [Example 124, 9-(4-Amino-phenyl)-5-methyl-2-phenyl-spiro[benzo[f]pyrazolo[1,5-a][1,4]diazepine-6,1′-cyclopropan]-4(5H)-one]"

EC50 (human mGluR3 (hmGluR3)),melting point,Structure (SMILES)
100 to 1000 nM,> 250 °C,"COc1ccc(-c2ccc3c(c2)-n2nc(-c4ccccc4)cc2C(=O)N(C)C32CC2)cc1 [Example 128, 9-(4-Methoxy-phenyl)-5-methyl-2-phenyl-spiro[benzo[f]pyrazolo[1,5-a][1,4]diazepine-6,1′-cyclopropan]-4(5H)-one]"
100 to 1000 nM,185 to 190 °C,"CN1C(=O)c2cc(-c3ccccc3)nn2-c2cc(-c3cccc(C#N)c3)ccc2C12CC2 [Example 129, 9-(3-Cyano-phenyl)-5-methyl-2-phenyl-spiro[benzo[f]pyrazolo[1,5-a][1,4]diazepine-6,1′-cyclopropan]-4(5H)-one]"
100 to 1000 nM,214 to 220 °C,"CN1C(=O)c2cc(-c3ccccc3)nn2-c2cc(-c3cnco3)ccc2C12CC2 [Example 132, 9-(Oxazol-5-yl)-5-methyl-2-phenyl-spiro[benzo[f]pyrazolo[1,5-a][1,4]diazepine-6,1′-cyclopropan]-4(5H)-one]"
< 100 nM,211 to 217 °C,"CN1C(=O)c2cc(-c3ccccc3)nn2-c2cc(-c3cccc(C(=O)O)c3)ccc2C12CC2 [Example 133, 3-(5-methyl-4-oxo-2-phenyl-4,5-dihydrospiro[benzo[f]pyrazolo[1,5-a][1,4]diazepine-6,1′-cyclopropan]-9-yl)benzoic acid]"
100 to 1000 nM,199 to 208 °C,"CN1C(=O)c2cc(-c3ccccc3)nn2-c2cc(-c3cn[nH]c3)ccc2C12CC2 [Example 134, 9-(1H-pyrazol-4-yl)-5-methyl-2-phenyl-spiro[benzo[f]pyrazolo[1,5-a][1,4]diazepine-6,1′-cyclopropan]-4(5H)-one]"
100 to 1000 nM,218 to 224 °C,"CN1C(=O)c2cc(-c3ccccc3)nn2-c2cc(-c3cc[nH]n3)ccc2C12CC2 [Example 136, 9-(1H-pyrazol-3-yl)-5-methyl-2-phenyl-spiro[benzo[f]pyrazolo[1,5-a][1,4]diazepine-6,1′-cyclopropan]-4(5H)-one]"
> 1000 nM,196 to 200 °C,"CN1C(=O)c2cc(-c3ccccc3)nn2-c2cc(C#N)ccc2C12CC2 [Example 137, 9-Cyano-5-methyl-2-phenyl-spiro[benzo[f]pyrazolo[1,5-a][1,4]diazepine-6,1′-cyclopropan]-4(5H)-one]"
> 1000 nM,212 to 218 °C,"CN1C(=O)c2cc(-c3ccccc3)nn2-c2ccccc2C12CC2 [Example 138, 5-Methyl-2-phenyl-spiro[benzo[f]pyrazolo[1,5-a][1,4]diazepine-6,1′-cyclopropan]-4(5H)-one]"
> 1000 nM,226 to 230 °C,"CN1C(=O)c2cc(-c3ccccc3)nn2-c2cc(N3CCCC3)ccc2C12CC2 [Example 139, 5-Methyl-2-phenyl-9-(pyrrolidin-1-yl)-spiro[benzo[f]pyrazolo[1,5-a][1,4]diazepine-6,1′-cyclopropan]-4(5H)-one]"
100 to 1000 nM,198 to 205 °C,"CN1C(=O)c2cc(-c3ccccc3)cn2-c2cc(-c3cccc(S(=O)(=O)N(C)C)c3)ccc2C12CC2 [Example 141, N,N-dimethyl-3-(5-methyl-4-oxo-2-phenyl-4,5-dihydrospiro[benzo[f]pyrrolo[1,2-a][1,4]diazepine-6,1′-cyclopropan]-9-yl)benzenesulfonamide]"
100 to 1000 nM,182 to 189 °C,"CN1C(=O)c2cc(-c3ccccc3)nn2-c2cc(-c3cccc(S(=O)(=O)N(C)C)c3)ccc2C12CC2 [Example 142, N,N-dimethyl-3-(5-methyl-4-oxo-2-phenyl-4,5-dihydrospiro[benzo[f]pyrazolo[1,5-a][1,4]diazepine-6,1′-cyclopropan]-9-yl)benzenesulfonamide]"
100 to 1000 nM,> 250 °C,Cc1ncccc1-c1ccc2c(c1)-n1cc(C#N)cc1C(=O)N(C)C21CC1 [Example 153]
100 to 1000 nM,> 250 °C,"Cc1ncccc1-c1ccc2c(c1)-n1cc(C(=O)O)cc1C(=O)N(C)C21CC1 [Example 176, 5-Methyl-9-(2-methylpyridin-3-yl)-4-oxo-4,5-dihydrospiro[benzo[f]pyrrolo[1,2-a][1,4]diazepine-6,1′-cyclopropane]-2-carboxylic acid]"
< 100 nM,> 250 °C,Cc1ncccc1-c1ccc2c(c1)-n1cc(-c3nnco3)cc1C(=O)N(C)C21CC1 [Example 185]
< 100 nM,> 250 °C,CN1C(=O)c2cc(-c3ncc[nH]3)cn2-c2cc(-c3ccc(F)nc3)ccc2C12CC2 [Example 186]
< 100 nM,160 to 175 °C,CN1C(=O)c2cc(-c3nnco3)cn2-c2cc(-c3ccc(F)nc3)ccc2C12CC2 [Example 187]
